In patent publication US5929110A, “Fatty acid analogs and prodrugs” (G. D. Searle & Co., priority 1998, dated 1999):
Read-outs that look alike come from different tables or passages of the source.

Tests used:
[1] = tested on: HIV-1; assay: inhibition of HIV-1; reduction of cytopathogenic effect in virus-infected Leu-3a-positive CEM cells (MTT assay); type: cell-based, strain HTVL-IIIB; settings: Human immunodeficiency virus 1, CCRF-CEM, multiplicity of infection 0.1, MTT read on 7th to 9th day post-infection
Experimental: Inhibitory activity against HIV-1 was shown by tests involving plating of susceptible human host cells which are syncytium-sensitive with and without virus in microculture plates, adding various concentrations of the test compound, incubating the plates for 7 to 9 days (during which time infected, non-drug treated control cells are largely or totally destroyed by the virus), and then determining the remaining number of viable cells with a colorometric endpoint.
Various illustrative compounds synthesized above were tested for inhibition of HIV-1 in a test which measured reduction of cytopathogenic effect in virus-infected syncytium-sensitive Leu-3a-positive CEM cells grown in tissue culture as follows:
Tissue culture plates were incubated at 37° C. in a humidified, 5% CO2 atmosphere and observed microscopically for toxicity and/or cytopathogenic effect (CPE). At 1 hour prior to infection each test article was prepared from the frozen stock, and a 20 μl volume of each dilution (prepared as a 10× concentration) was added to the appropriate wells of both infected and uninfected cells.
Assays were done in 96-well tissue culture plates. CEM cells were treated with polybrene at a concentration of 2 μg/ml, and an 80 μl volume of cells (1×10^4 cells) was dispensed into each well. A 100 μl volume of each test article dilution (prepared as a 2× concentration) was added to 5 wells of cells, and the cells were incubated at 37° C. for 1 hour. A frozen culture of HIV-1, strain HTVL-IIIB, was diluted in culture medium to a concentration of 5×10^4 TCID50 per ml, and a 20 μl volume (containing 10^3 TCID50 of virus) was added to 3 of the wells for each test article concentration. […] A 20 μl volume of normal culture medium was added to the remaining wells to allow evaluation of cytotoxicity. Each plate contained 6 wells of untreated, uninfected, cell control samples and 6 wells of untreated, infected, virus control samples.
On the 7th to 9th day post-infection, the cells in each well were resuspended and a 100 μl sample of each cell suspension was removed for use in an MTT assay. A 20 μl volume of a 5 mg/ml solution of 3-(4,5-dimethylthiazol-2-yl)-2,5-diphenyltetrazolium bromide (MTT) was added to each 100 μl cell suspension, and the cells were incubated at 37° C. in 5% CO2 for 4 hours. […] A 100 μl volume of a solution of 10% sodium dodecyl sulfate in 0.01N hydrochloric acid was added to each sample, and the samples were incubated overnight. The absorbance at 590 nm was determined for each sample using a Molecular Devices Vmax microplate reader. This assay detects drug-induced suppression of viral CPE, as well as drug cytotoxicity, by measuring the generation of MTT-formazan by surviving cells.

[2] = biological half-life in rat hepatic S9 preparation; type: in vitro ADME; settings: liver s9, rat hepatic S9, approximately 2 mcg/mL, 37° C.
Experimental: Various illustrative compounds synthesized in Examples above were tested for biological half-life. Compounds were incubated at a concentration of approximately 2 mcg/mL in a rat liver S9 preparation which was prepared according to standard procedures with minor modifications^1. The reactions were conducted at 37° C. in a water bath and stopped by the addition of ice cold methanol at various times ranging from 0 to 20 minutes. Aliquots of the incubations were analyzed by high performance liquid chromatography (HPLC) for the compound of interest. The analyses were conducted on a Waters HPLC system consisting of a model 510 pump and a Wisp model 712 automatic injector. Waters C18 columns were used to perform the separations. The compounds were detected by UV adsorption. The mobile phases consisted of acetonitrile and sodium phosphate buffer (40 mM, pH 3.5); specific conditions were varied slightly for each compound. Concentrations of each compound were determined with time and the rate of metabolism was determined by analyzing the data using the CSTRIP program^2.
^1 Subcellular Fractionation of Rat Liver. S. Fleischer and M. Kervina in Methods of Enzymology, Vol. XXXI, Biomembranes Part A, S. Fleischer and L. Packer Eds., pp. 6-41 (1974).
^2 A. T. Sedman and J. G. Warner, "CSTRIP. A Fortran IV Computer Program for Obtaining Initial Polyexponential Parameter Estimates.", J. Pharm. Sci. 65, 1006-1010 (1976).

[3] = 0 to 20 minutes, read-out: Half-life

Row | Structure (SMILES) | EC50 [1] [µM] | half-life [2, 3] [min] | half-life ([2]; read-out: Half-life (not detected at initial sampling)) [min]
1 | CCOC(=O)[C@H](Cc1ccccc1)NC(=O)CCCCCCCCCCCOC [Example 49, N-(12-Methoxy-1-oxododecyl)-L-phenylalanine, Ethyl ester] | 5.4 | 1.07 | 
2 | COCCCCCCCCCCCC(=O)NCc1ccccc1 [Example 14, 12-Methoxy-N-(phenylmethyl)dodecanamide] | 3.8 | 2.41 | 
3 | CCOC(=O)[C@@H](CCCCNC(=O)OCc1ccccc1Cl)NC(=O)CCCCCCCCCCCOC [Example 68, N6-[[(2-Chlorophenyl)methoxy]carbonyl]-N2-(12-methoxy-1-oxododecyl)-D-lysine, Ethyl ester] | 13.1 | 8.54 | 
4 | CCCCCCCCCCOCCC(=O)N[C@H](Cc1ccccc1)C(=O)OCC [Example 56, N-(3-(Decyloxy)-1-oxopropyl]-D-phenylalanine, Ethyl ester] | > 240 | 1.97 | 
5 | COCCCCCCCCCCCC(=O)Nc1cccc(C(=O)O)c1 [Example 18, 3-[(12-Methoxy-1-oxododecyl)amino]benzoic acid] | > 285 | 8.46 | 
6 | CCOC(=O)c1cccc(NC(=O)CCCCCCCCCCCOC)c1 [Example 17, Ethyl 3-[(12-Methoxy-1-oxododecyl)amino]-benzoate] | 8.2 |  | < 5
